Results: paper PMC9912809 (Inorganic chemistry, 2022)
Like-named read-outs stand apart in the source and are kept apart here. Values belong to the compound of their own block, whether it stands above or below them.

Columns and labels:
[1] = molecular target: T1, Recombinant human glyoxalase I (GLO1) (Homo sapiens, UniProt Q04760); test: GLO1 inhibition assay; assay type: biochemical
T1 sequence (Q04760 2-184 limits assumed): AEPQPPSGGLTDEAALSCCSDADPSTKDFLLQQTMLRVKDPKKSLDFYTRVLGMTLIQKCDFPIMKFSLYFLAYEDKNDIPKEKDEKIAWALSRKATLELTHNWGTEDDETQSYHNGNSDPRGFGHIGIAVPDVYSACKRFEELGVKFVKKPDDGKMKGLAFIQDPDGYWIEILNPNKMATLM

[2] = molecular target: Human recombinant MMP-2 catalytic domain (Homo sapiens, UniProt P08253); test: MMP-2 fluorogenic substrate inhibition assay; conditions: for Percent inhibition MMP-2: SD of triplicate in parentheses
[3] = pKa determination with SiriusT3; assay type: physicochemical; conditions: SiriusT3, range pH 2.0 – 12.0, 0.15 M KCl
[4] = molecular target: Human carbonic anhydrase II (hCAII) (Homo sapiens, UniProt P00918); test: hCAII inhibition assay; assay type: biochemical
[5] = logP by potentiometric octanol/water titration; assay type: physicochemical
GLO1 = molecular target: T2, GLO1 (Homo sapiens, UniProt Q04760); test: Thermal shift assay; assay type: binding; conditions: thermal shift assay (Table S7)
T2 sequence (Q04760 2-184 limits assumed): T1 sequence (Q04760 2-184 limits assumed)

[6] = 200 μM, SD of triplicate in parentheses

Sequence of Human recombinant MMP-2 catalytic domain (P08253 110-452 limits assumed): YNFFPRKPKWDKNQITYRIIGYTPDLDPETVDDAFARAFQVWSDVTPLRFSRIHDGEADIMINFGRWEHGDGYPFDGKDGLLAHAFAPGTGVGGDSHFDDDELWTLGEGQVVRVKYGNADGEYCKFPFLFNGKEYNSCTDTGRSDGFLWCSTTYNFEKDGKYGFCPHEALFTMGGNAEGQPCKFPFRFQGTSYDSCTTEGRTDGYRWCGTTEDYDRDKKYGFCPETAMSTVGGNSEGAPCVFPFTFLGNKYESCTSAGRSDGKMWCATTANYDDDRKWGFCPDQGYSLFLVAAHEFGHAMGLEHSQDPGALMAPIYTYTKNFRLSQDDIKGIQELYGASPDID

SMILES: COCCCn1ccc2cc(-c3cc(-c4ccccc4)cc(=O)n3O)cnc21 [Chugai-3d, reference compound]
Inhibition of GLO1 by positive control ([1]; 50 μM final concentration): complete inhibition

SMILES: COc1ccc(S(=O)(=O)N(CC(=O)NO)CC(C)C)cc1 [NNGH, reference compound]
Inhibition of MMP-2 by positive control ([2]; 50 μM final concentration): complete inhibition

SMILES: Oc1cccc2cccnc12 [8-HQ, 8-Hydroxyquinoline, reference compound]
IC50 [2]: 166 µM
inhibition at 200 µM ([2]; read-out: Percent inhibition MMP-2): 57%
ΔTM of MBI-bound GLO1 vs native, unbound GLO1 (GLO1): > 3 °C
inhibition at 200 µM ([1]; read-out: Percent inhibition GLO1): 95%
inhibition at 200 µM ([4]; read-out: Percent inhibition hCAII): < 5%
logP ([5]; octanol/water): 1.86
logD ([5]; octanol/water, pH 7.4): 1.85

Further lines, results first:

Reduction of MMP-2 inhibition activity compared to 8-HQ ([2]; 200 μM): > 50%
Percent inhibition MMP-2 ([2]; 200 μM): 26 (7) %
Reduction of GLO1 inhibition activity compared to 8-HQ ([1]; 200 μM): > 50%
Percent inhibition GLO1 [1, 6]: <5%
SMILES: Oc1ccc2ncccc2c1 [Compound 32]

Measured pKa1 (conjugated acid, protonated nitrogen of heteroaromatic ring) [3]: 3.17
Measured pKa2 (hydroxyl group or its isosteric replacement) [3]: 8.97
Percent inhibition MMP-2 ([2]; 200 μM): 59 (2) %
IC50 ([2]; read-out: IC50 MMP-2, dose-response 10 μM to 1000 or 1500 μM (Figure S2)): 154 ± 9.8 µM
Percent inhibition hCAII [4, 6]: <5%
Measured logD7.4 ([5]; derived from measured pKa and logP, pH 7.4): 0.99
Measured logP ([5]; octanol/water, potentiometric, SiriusT3): 1.01
SMILES: CS(=O)(=O)Nc1cccc2cccnc12 [MBI 18]
